Measured values: ChEMBL document CHEMBL3632521, “A study of ad-proline peptidomimetic inhibitor of melanoma and endothelial cell invasion through activity towards MMP-2 and MMP-9” (Medchemcomm, 2015)
Activity calls are given as the source filed them. No cut-off for these calls is given here.

Tests used:
[1] = target: 72 kDa type IV collagenase (Homo sapiens, UniProt P08253); assay: Inhibition MMP-2 (unknown origin) using Mca-Lys-Pro-Leu-Gly-Leu-Dpa-Ala-Arg-NH2 as substrate preincubated for 5 mins followed by substrate addition measured for 30 mins by fluorometric assay
Chain of 72 kDa type IV collagenase (P08253 whole entry): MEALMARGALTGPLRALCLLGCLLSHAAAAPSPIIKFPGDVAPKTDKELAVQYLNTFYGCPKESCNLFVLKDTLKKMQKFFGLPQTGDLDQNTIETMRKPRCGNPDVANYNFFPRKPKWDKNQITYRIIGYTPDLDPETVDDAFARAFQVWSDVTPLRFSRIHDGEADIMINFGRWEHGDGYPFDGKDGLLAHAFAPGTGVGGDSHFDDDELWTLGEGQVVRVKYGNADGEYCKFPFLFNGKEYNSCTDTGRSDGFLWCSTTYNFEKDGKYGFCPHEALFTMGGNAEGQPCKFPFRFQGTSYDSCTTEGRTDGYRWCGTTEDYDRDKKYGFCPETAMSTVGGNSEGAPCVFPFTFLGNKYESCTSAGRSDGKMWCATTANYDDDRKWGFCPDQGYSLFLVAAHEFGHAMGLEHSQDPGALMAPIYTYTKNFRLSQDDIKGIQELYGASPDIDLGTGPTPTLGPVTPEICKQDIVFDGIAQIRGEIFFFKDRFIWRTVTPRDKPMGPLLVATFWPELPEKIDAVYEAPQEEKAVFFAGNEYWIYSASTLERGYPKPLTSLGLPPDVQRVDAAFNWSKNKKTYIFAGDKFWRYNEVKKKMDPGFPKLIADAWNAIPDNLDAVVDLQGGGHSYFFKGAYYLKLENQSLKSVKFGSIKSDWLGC

[2] = target: T1, Matrix metalloproteinase-9 (Homo sapiens, UniProt P14780); assay: Inhibition MMP-9 (unknown origin) using Mca-Lys-Pro-Leu-Gly-Leu-Dpa-Ala-Arg-NH2 as substrate preincubated for 5 mins followed by substrate addition measured for 30 mins by fluorometric assay
T1 sequence (P14780 whole entry): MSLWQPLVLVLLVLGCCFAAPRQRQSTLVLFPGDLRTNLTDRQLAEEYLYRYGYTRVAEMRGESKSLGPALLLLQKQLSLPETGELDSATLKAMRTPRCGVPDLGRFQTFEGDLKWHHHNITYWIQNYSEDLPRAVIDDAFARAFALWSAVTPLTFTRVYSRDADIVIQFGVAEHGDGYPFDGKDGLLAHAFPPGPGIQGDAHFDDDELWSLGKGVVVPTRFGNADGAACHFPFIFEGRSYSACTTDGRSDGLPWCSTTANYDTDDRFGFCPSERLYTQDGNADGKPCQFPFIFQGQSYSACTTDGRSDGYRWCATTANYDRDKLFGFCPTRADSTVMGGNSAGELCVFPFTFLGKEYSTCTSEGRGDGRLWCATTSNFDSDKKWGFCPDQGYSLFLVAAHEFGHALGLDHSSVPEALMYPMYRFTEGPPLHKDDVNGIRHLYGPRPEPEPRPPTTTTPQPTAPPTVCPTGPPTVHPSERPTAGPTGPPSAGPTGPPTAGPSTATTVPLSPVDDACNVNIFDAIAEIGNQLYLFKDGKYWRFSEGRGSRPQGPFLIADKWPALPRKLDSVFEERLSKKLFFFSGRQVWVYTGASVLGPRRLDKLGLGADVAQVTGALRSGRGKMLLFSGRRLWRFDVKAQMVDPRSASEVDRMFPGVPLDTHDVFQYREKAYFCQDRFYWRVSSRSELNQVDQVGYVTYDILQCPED

[3] = target: T1, Matrix metalloproteinase-9; assay: Inhibition of gelatinolytic activity of pro-MMP9 in human A375P cells assessed as reduction in active form of protein by gelatin zymography; format: cell-based
[4] = Cytostatic activity in human A375P cells at 2.5 to 50 uM after 24 hrs by trypan blue based inverted-phase microscopic analysis; format: ADME, cell-based
[5] = Cytotoxic activity in human A375P cells at 2.5 to 50 uM after 24 hrs by trypan blue based inverted-phase microscopic analysis; format: cell-based
[6] = Cytostatic activity in human A375P cells at 2.5 to 50 uM after 72 hrs by trypan blue based inverted-phase microscopic analysis; format: ADME, cell-based
A375P = assay: Antiinvasive activity in human A375P cells assessed as reduction in tumor cell migration at 20 uM measured for 6 hrs by matrigel assay; format: functional, cell-based
[7] = target: T1, Matrix metalloproteinase-9; assay: Inhibition of gelatinolytic activity of pro-MMP9 in human endothelial progenitor cells assessed as reduction in active form of protein at 20 uM by gelatin zymography
EPC = assay: Antiinvasive activity in human endothelial progenitor cells at 20 uM after 24 hrs by matrigel assay; format: functional
Mus musculus = species: Mus musculus; assay: Antiangiogenic activity in FVB mouse receiving 20 uM compound containing matrigel mixtures with heparin resuspended in EGM-2 medium assessed as reduction in capillary network formation after 5 days by microscopy based matrigel sponge assay; format: functional, organism-based

Row | Structure (SMILES) | IC50 ([1]; read-out: IC50) [nM] | IC50 ([2]; read-out: IC50) [nM] | IC50 [1] | also measured
1 | O=C(NO)[C@H]1C[C@H](NS(=O)(=O)c2ccc(-c3ccccc3)cc2)CN1S(=O)(=O)c1ccc(Cl)c(Cl)c1 | 360 | 60 |  | 
2 | O=C(/C=C/c1ccco1)N[C@H]1C[C@H](C(=O)NO)N(S(=O)(=O)c2ccc(Cl)c(Cl)c2)C1 |  | 360 |  | 
3 | O=C(NO)[C@H]1C[C@@H](NS(=O)(=O)c2ccc(-c3ccccc3)cc2)CN1S(=O)(=O)c1ccc(Cl)c(Cl)c1 |  | 590 | Not Active | 
4 | O=C(N[C@H]1C[C@H](C(=O)NO)N(S(=O)(=O)c2ccc(Cl)c(Cl)c2)C1)c1cccs1 |  |  |  | IC50 [2]: Not Active
5 | COc1ccc(C(=O)N[C@@H]2C[C@H](C(=O)NO)N(S(=O)(=O)c3ccc(Cl)c(Cl)c3)C2)c(OC)c1 | 450 | 560 |  | inhibition [3]: Dose-dependent effect; Activity [4]: Non-toxic; Activity [5]: Non-toxic; Activity [6]: Toxic; Activity (A375P): Active; inhibition [7]: Active; Activity (EPC): Active; Activity (Mus musculus): Active
6 | COc1ccc(C(=O)N[C@H]2C[C@H](C(=O)NO)N(S(=O)(=O)c3ccc(Cl)c(Cl)c3)C2)c(OC)c1 |  | 1710 | Not Active | 

Now from value to compound, other results behind:

Row | IC50 ([1]; read-out: IC50) [nM] | IC50 ([2]; read-out: IC50) [nM] | IC50 [1] | Structure (SMILES) | also measured
7 | 144 | 100 |  | O=C(N[C@@H]1C[C@H](C(=O)NO)N(S(=O)(=O)c2ccc(Cl)c(Cl)c2)C1)c1cccs1 | 
8 |  | 1200 |  | O=C(NO)[C@H]1C[C@H](n2cc(-c3ccccc3)nn2)CN1S(=O)(=O)c1ccc(Cl)c(Cl)c1 | 
9 |  | 900 | Not Active | O=C(NO)[C@H]1C[C@@H](OCc2ccccc2)CN1S(=O)(=O)c1ccc(Cl)c(Cl)c1 | 
